Publication PMC9369231, “Bile Acid–Drug Interaction via Organic Anion-Transporting Polypeptide 4C1 Is a Potential Mechanism of Altered Pharmacokinetics of Renally Excreted Drugs” (International Journal of Molecular Sciences, 2022)

Columns and labels:
Assay type in all cases: cell-based
[1] = target: T1, OATP4C1 (organic anion-transporting polypeptide 4C1) (Homo sapiens, UniProt Q6ZQN7); test: inhibition of T3 uptake in OATP4C1/MDCKII cells; Ki calculated from IC50 as IC50/([…]+[S]/Km)
T1 construct: gene SLCO4C1; stably expressed in MDCKII cells (G418), butyrate-induced
T1 sequence (Q6ZQN7 1-724): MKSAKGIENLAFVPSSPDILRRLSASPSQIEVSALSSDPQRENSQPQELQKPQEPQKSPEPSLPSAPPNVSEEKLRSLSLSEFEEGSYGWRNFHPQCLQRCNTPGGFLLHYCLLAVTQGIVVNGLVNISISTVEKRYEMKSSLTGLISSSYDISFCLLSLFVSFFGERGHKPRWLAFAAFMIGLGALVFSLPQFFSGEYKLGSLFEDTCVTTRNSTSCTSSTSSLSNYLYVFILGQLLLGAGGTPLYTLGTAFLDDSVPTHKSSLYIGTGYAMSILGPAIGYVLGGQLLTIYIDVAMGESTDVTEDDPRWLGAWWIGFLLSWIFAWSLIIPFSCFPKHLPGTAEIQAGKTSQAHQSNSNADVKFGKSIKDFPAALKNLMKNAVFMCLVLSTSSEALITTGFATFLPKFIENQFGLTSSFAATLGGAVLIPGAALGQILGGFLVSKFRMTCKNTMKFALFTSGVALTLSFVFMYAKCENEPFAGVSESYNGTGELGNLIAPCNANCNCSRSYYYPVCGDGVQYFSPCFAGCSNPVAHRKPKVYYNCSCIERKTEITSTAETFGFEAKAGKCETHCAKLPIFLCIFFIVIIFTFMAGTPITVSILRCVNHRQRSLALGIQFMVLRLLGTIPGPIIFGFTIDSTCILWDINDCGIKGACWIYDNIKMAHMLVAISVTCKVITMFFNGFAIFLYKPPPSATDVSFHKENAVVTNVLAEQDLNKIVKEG

[2] = target: T1, OATP4C1 (organic anion-transporting polypeptide 4C1); test: inhibition of T3 uptake in OATP4C1/MDCKII cells, LC/MS/MS, mock subtracted
Source text: inhibition of T3 uptake in OATP4C1/MDCKII cells, LC/MS/MS, mock subtracted on OATP4C1 (organic anion-transporting polypeptide 4C1)

[3] = target: T1, OATP4C1 (organic anion-transporting polypeptide 4C1); test: as above; settings: MDCK-II

| SMILES | Ki [1] [µM] | IC50 [2] [µM] | inhibition at 50 µM [3] [%] |
| --- | --- | --- | --- |
| C[C@H](CCC(=O)NCC(=O)O)[C@H]1CC[C@H]2[C@@H]3CC[C@@H]4C[C@H](O)CC[C@]4(C)[C@H]3CC[C@]12C [GLCA] | 8.46 ± 0.406 | 9.9 ± 0.475 | – |
| C[C@H](CCC(=O)NCCS(=O)(=O)O)[C@H]1CC[C@H]2[C@@H]3CC[C@@H]4C[C@H](OS(=O)(=O)O)CC[C@]4(C)[C@H]3C[C@H](O)[C@]12C [TDCA-3S] | – | – | 49.1 |
| C[C@H](CCC(=O)NCCS(=O)(=O)O)[C@H]1CC[C@H]2[C@@H]3CC[C@@H]4C[C@H](O)CC[C@]4(C)[C@H]3CC[C@]12C [TLCA] | 10.5 ± 0.762 | 12.3 ± 0.891 | – |
| C[C@H](CCC(=O)O)[C@H]1CC[C@H]2[C@@H]3CC[C@@H]4C[C@H](O)CC[C@]4(C)[C@H]3CC[C@]12C [LCA] | 5.23 ± 1.03 | 6.12 ± 1.21 | – |
